# Assay results: patent publication US20090081314A1, “Glycemic Control, Diabetes Treatment, and Other Treatments with Acetyl Cholinesterase Inhibitors” (priority 2007, published 2009)
# Read-outs that look alike come from different tables or passages of the source.
# Legend:
# [1] = for fasting blood glucoses: patient eleven
# [2] = Cephalization of body mass / weight loss case studies; conditions: patient seventeen; three months of donepezil 5 mg daily, no dieting or exercise program
# [3] = Other clinical observations in diabetic patients on donepezil (case studies); assay type: in vivo, human
# [4] = system: HIV; test: HIV infection case studies: viral load and CD4 count; assay type: in vivo, human; conditions: for viral load / CD4 count: on antivirals
# Description: The state of HIV infection is often monitored by CD4 counts (the higher the better) and circulating virus (the lower the better).
# [5] = Renal function (BUN, creatinine, ultrafiltration) in patients on donepezil (case studies); assay type: in vivo, human
# [6] = Insulin requirement of diabetic patients on donepezil (case studies); assay type: in vivo, human; conditions: for insulin requirements at bedtime (lantus): patient eleven, before 35 units
# [7] = Coronary artery disease / congestive failure case studies: blood pressure and symptoms; assay type: in vivo, human
# Description: The present disclosure provides clinical evidence of the use of an acetyl cholinesterase inhibitor for treating coronary artery diseases including heart disease.
# [8] = patient six, two months of donepezil 5 mg daily
# [9] = patient twelve, over the next week of donepezil 5 mg daily
# [10] = patient three, donepezil 5 mg daily, over the next week
smiles,measurement,setting,value
COc1cc2c(cc1OC)C(=O)C(CC1CCN(Cc3ccccc3)CC1)C2 (centres unmarked) [donepezil],fasting blood glucoses,[1]; donepezil 10 mg daily,less than 80 mg %
same,fasting blood glucoses,"[1]; first month, donepezil 5 mg orally daily",less than 80 mg %
same,fasting blood sugars,"[1]; patient fifteen, after one week of donepezil 5 mg daily",less than 100 mg %
same,preprandial blood sugars,"[1]; patient five, after 3 days of donepezil 5 mg orally daily plus prandin 2 mg, before 100-120",less than 80 mg %
same,blood sugars,"[1]; patient five, donepezil 5 mg daily, prandin discontinued, 1800 ADA diet",less than 110 mg %
same,"blood sugar at lunch, one episode","[1]; patient five, donepezil 5 mg orally daily plus prandin",less than 50 mg %
same,other measured blood glucoses,"[1]; patient nine, donepezil 10 mg, all oral hypoglycemic agents discontinued",less than 120 mg %
same,fasting blood glucose levels,"[1]; patient nine, over 7 days of donepezil 5 mg orally daily, micronase discontinued",less than 90 mg %
same,blood glucose values,"[1]; patient nineteen, donepezil 10 mg, metformin discontinued, 1800 cal ADA diet",less than 120 mg %
same,fasting blood sugars,"[1]; patient sixteen, following donepezil 5 mg daily, glipizide discontinued, before 150-200",less than 100 mg %
same,fasting blood sugars,"[1]; patient ten, first week of donepezil 5 mg orally daily",less than 100 mg %
same,blood sugars,"[1]; patient ten, next 7 days of donepezil 5 mg orally daily",less than 111 mg %
same,fasting blood sugars,"[1]; patient twelve, first 4 days of donepezil 5 mg daily",less than 100 mg %
same,fasting blood sugars,"[1]; patient twelve, next week of donepezil 5 mg daily",less than 100 mg %
same,over all weight loss,[2],greater than 20 pounds
same,lymphedema in lower extremities,"[3]; patient five, over the next month of donepezil 5 mg orally daily",notable decline
same,symptoms of painful diabetic polyneuropathy,"[3]; patient four, one month of donepezil 5 mg daily",significantly reduced
same,electrocardiogram,"[3]; patient fourteen (history of atrial fibrillation), donepezil 10 mg orally daily, about five weeks",normal sinus rhythm
same,foot drop,"[3]; patient one, two months of donepezil 5 mg orally daily",resolved
same,painful symptoms of diabetic polyneuropathy,"[3]; patient seven, donepezil 5 mg orally daily",diminution
same,edema in intact lower extremity,"[3]; patient twelve, donepezil 5 mg daily",eliminated
same,viral load,"[4]; patient six, one month of donepezil 5 mg orally daily, before 1-2 million",1 million
same,CD4 count,"[4]; patient six, one month of donepezil 5 mg orally daily, before less than 20",26
same,CD4 count,[4]; [8],42
same,viral load,[4]; [8],non existent (below measurement detection)
same,CD4 count,"[4]; patient thirteen, two months of donepezil 5 mg daily, before 24",36
same,viral load,"[4]; patient thirteen, two months of donepezil 5 mg daily, before over 4 million",1.6 million
same,weight gained,"[4]; patient thirteen, two months of donepezil 5 mg daily",over 15 pounds
same,creatinine,"[5]; patient fifteen, two months of donepezil 5 mg daily, before 1.8",1.1
same,BUN,"[5]; patient fifteen, two months of donepezil 5 mg daily, before 40",24
same,creatinine,"[5]; patient fourteen, five weeks of donepezil 5 then 10 mg, admission 2.0",1.2
same,ultrafiltration per dialysis,"[5]; patient sixteen, hemodialysis, two months of donepezil 5 mg daily, before 5-6 liters three times weekly",less than 2 liter
same,creatinine,"[5]; patient twelve, one month of donepezil 5 mg daily, admission 1.6",0.9
same,BUN,"[5]; patient twelve, one month of donepezil 5 mg daily, admission 38",21
same,evening dose of glargine insulin,"[6]; patient eighteen, donepezil 10 mg orally daily, one month, before 5 units",discontinued
same,insulin requirements at bedtime (lantus),[6]; donepezil increased to 10 mg daily,12 units
same,insulin requirements at bedtime (lantus),[6]; over one month of donepezil 5 mg orally daily,25 units
same,pre prandial insulin coverage,"[6]; patient four, after one month of donepezil 5 mg daily",eliminated
same,requirement for lantus insulin,"[6]; patient nineteen, donepezil 5 then 10 mg, before 12 units at bedtime",no longer required lantus insulin
same,daily insulin requirement over a 24 hour period,"[6]; patient one, after an additional month (two months) of donepezil 5 mg daily, before approx. 32 units",approximately 12 units
same,insulin requirement for 24 hour period,"[6]; patient one, insulin pump, after one month of donepezil 5 mg orally daily, before approx. 32 units",< 20 units
same,pre-prandial insulin coverage (Novolog),"[6]; patient twelve, over 4 days of donepezil 5 mg daily, before 8 units",4 units
same,evening dose of lantus insulin,"[6]; patient twelve, over 4 days of donepezil 5 mg daily, before 30 units",20 units
same,evening dose of lantus,[6]; [9],10 units
same,pre prandial insulin coverage,[6]; [9],eliminated
same,dose of Humulin N in the AM,"[6]; po, 5 mg",10 units
same,evening dose of Humulin,"[6]; po, 5 mg",20 units
same,blood pressure,"[7]; patient eight, after one month, midodrine and diuretic discontinued",120/70
same,blood pressure,"[7]; patient eight, ensuing week of donepezil 5 mg daily",110/60
same,blood pressure,"[7]; patient eight, over 5 days of donepezil 5 mg daily, midodrine decreased, before 85/60",100/60
same,blood pressure,"[7]; patient eighteen, next 10 days of donepezil 5 mg daily",100/70
same,blood pressure,"[7]; patient eighteen, over 7 days of donepezil 5 mg daily, before 80/50",90/60
same,blood pressure,"[7]; patient seven, donepezil 5 mg daily, furosemide 20 mg every day",110/70
same,diastolic blood pressure,"[7]; patient seven, first two weeks of donepezil 5 mg daily",less than 80 mm Hg
same,diastolic blood pressure,"[7]; patient seven, next two weeks of donepezil 5 mg daily",70 mm Hg
same,blood pressure,"[7]; patient seventeen, follow up one month later on donepezil 5 mg daily",120/60
same,blood pressure,"[7]; patient seventeen, ten days of donepezil 5 mg daily, midodrine discontinued",greater than 100/60
same,blood pressure,[7]; [10],normalized
same,symptoms of congestive heart failure,[7]; [10],resolved
same,blood pressure,"[7]; patient twenty, donepezil 5 mg daily, two weeks after nitrates and lisinopril discontinued",120/70
same,blood pressure,"[7]; patient twenty, donepezil 5 mg daily, week after lisinopril decreased to 5 mg daily",110/70
same,blood pressure,"[7]; patient twenty, over two weeks of donepezil 5 mg daily, before 80/50",100/70
same,shortness of breath,"[7]; patient two, after one week of donepezil 5 mg daily",no further episodes of shortness of breath
same,blood pressure,"[7]; patient two, after one week of donepezil 5 mg daily with furosemide 40 mg daily",100/60
same,blood pressure,"[7]; patient two, one week later, furosemide 20 mg every other day",110/70
